{"source": "patent US11213536B2", "about": "“Acylated compounds for the treatment of ocular pathologies” (CONSEJO SUPERIOR DE INVESTIGACIONES CIENTÍFICAS, priority 2016, dated 2022)", "test_system": "zebrafish larva (Danio rerio)", "test": "Neuroprotection in PTZ-induced neurotoxicity model, AChE activity in zebrafish larvae", "type": "in vivo", "details": "5 dpf larvae, 10 μM, 5 mM PTZ for 6 hours", "procedure": "The objective of this assay was to analyze the protective effect of compound 2 and of the resveratrol (RES) control in a model of neurotoxicity induced by the neurotoxin pentylenetetrazole (PTZ). As an experimental model, the zebrafish larva (Danio rerio) was used to study the effect of the compounds on acetylcholinesterase activity (AChE) in larvae at 5 days post-fertilization (dpf).\nZebrafish embryos were seeded in 50 ml of dilution water (AD) in a Petri dish and grown to 5 dpf (larval stage). […] Next, the larvae were transferred using a Pasteur pipette to a 24-well microplate, so that each well contained five larvae, making ten replicates per condition. First, the pre-treatment of the 5 dpf larvae was performed. […] After this incubation period, all of the larvae were examined, and it was determined that the general state of the larvae was totally normal, without any visible anomaly or anomalous behavior. […]\nDetermination of AChE levels. […] In addition, the determination of total protein of each experimental group was carried out according to the technical study protocol (Quantification of protein by BCA, as a normalization process). Finally, the AChE levels determined in the control group were taken as a reference measurement and deemed to be 100%.", "data": [{"smiles": "CCCCCCCC(=O)OCC1OC(Oc2cc(O)cc(/C=C/c3ccc(O)cc3)c2)C(O)C(O)C1O", "note": "[Compound 2, trans-resveratrol-3-O-(6′-O-octanoyl)-β-D-glucopyranoside]", "values": [{"measurement": "AChE activity decrease induced by PTZ", "value": "significantly prevents the decrease in AChE activity"}]}]}
